One assay deals with PI3K. Nature of the assay: Cellular testing of PI3K inhibitors: P-S473-PKB Luminex assay in PC3 cells. The class given is cell-based. The conditions noted are these: PI3K-dependent phosphorylation of PKB at Serin 473 in PC3 cells. As for the experimental part: Description of the Method for the Cellular Testing of PI3K Inhibitors
The cellular assay for determination of the P-S473-PKB level is carried out as a Luminex assay in 96-well format in PC3 cells.
PC3 cells are sown out with 20,000 cells per well in 100 μl medium (45% RPMI1460/45% Ham's F12/10% FCS) and incubated on the following day for 30 min with a serial dilution of the test substance (7 concentrations) under serum-free conditions. […] The lysates are incubated overnight at 4° C. with shaking with Luminex beads to which an anti-total PKB antibody is coupled. The detection is carried out on the following day by addition of a P-S473-PKB antibody and a species-specific PE-labelled secondary antibody. The detection of P-S473-PKB is carried out by measurement in a Luminex 100 instrument by determination of 100 events per cavity in a measurement time of 60 sec. […] The values of the preparations treated with test substance are calculated from this as percent of control, and IC50 values are determined by means of RS1.
In turn, `COc1ccc(CCCO)c(Nc2nc3ccccc3nc2NS(=O)(=O)c2cn(C)cn2)c1` [reference compound] registered an IC50 of 370 nM.
The compound `COc1cc(Nc2nc3ccccc3nc2NS(=O)(=O)C2CCS(=O)(=O)C2)c(OCCCO)c(OC)c1` (stereo not drawn) [drawing 157] registered an IC50 of 53 nM.
Still for that read-out and setting: the value for `COc1cc(Nc2nc3ccccc3nc2NS(=O)(=O)c2cn(C)cn2)c(OCCS(C)(=O)=O)c(OC)c1` [drawing 161] was 86 nM; that for `COc1ccc(CCCO)c(Nc2nc3ccccc3nc2NS(=O)(=O)c2cn(C)c(CN(C)C)n2)c1` [reference compound] was 1100 nM.

Still in this assay, the particulars now being: PI3 kinase inhibition, cell.
`COc1cc(C)c(OC)c(Nc2nc3ccccc3nc2NS(=O)(=O)c2ccc(C(=O)N(C)C)cc2)c1` [Compound A12] showed an IC50 of 100 to 10000 nM.
The same measure, in the same setting: the result for `COc1cc(Nc2nc3ccccc3nc2NS(=O)(=O)c2cccs2)c(OCCO)c(OC)c1` [Compound A66] reads 1 to 100 nM.
Consider `COc1cc(Nc2nc3ccccc3nc2NS(=O)(=O)c2ccc(C#N)s2)c(OCCS(C)(=O)=O)c(OC)c1` [Compound A41], for which the IC50 lay in the range of 1 to 100 nM.
In turn, `COc1cc(Nc2nc3ccccc3nc2NS(=O)(=O)C2CCS(=O)(=O)C2)c(OCCCO)c(OC)c1` (stereo not drawn) [Compound A35] registered an IC50 of 1 to 100 nM.
Still for that read-out and setting: the value for `COc1cc(Nc2nc3ccccc3nc2NS(=O)(=O)c2cn(C)cn2)c2c(c1)OCC(CO)O2` (stereo not drawn) [Compound A127] was 100 to 10000 nM; that for `COc1cc(Nc2nc3ccccc3nc2NS(=O)(=O)c2cccnc2)c(OCCS(=O)(=O)CCO)c(OC)c1` [Compound A67] was 100 to 10000 nM.
Consider `COc1cc(Nc2nc3ccccc3nc2NS(=O)(=O)c2cn(C)cn2)c(OCCS(C)(=O)=O)c(OC)c1` [Compound A55], for which the IC50 lay in the range of 1 to 100 nM.
The same measure, in the same setting: the result for `COc1cc(Nc2nc3ccccc3nc2NS(=O)(=O)c2ccn(C(F)(F)C(=O)N(C)C)n2)c(OCCC(C)O)c(OC)c1` (stereo not drawn) [Compound A118, 2,2-difluoro-2-(3-{3-[2-(3-hydroxybutoxy)-3,5-dimethoxy-phenylamino]-quinoxalin-2-ylsulfamoyl}pyrazol-1-yl)-N,N-dimethylacetamide] reads 100 to 10000 nM; that for `CCc1c(Nc2nc3ccccc3nc2NS(=O)(=O)c2ccc(C(=O)N(C)C)cc2)cc(OC)cc1OC` [Compound A13], 100 to 10000 nM.
As for `COc1cc(Nc2nc3ccccc3nc2NS(=O)(=O)c2cccs2)c(OCCN(C)CCO)c(OC)c1` [Compound A60], the IC50 is 1 to 100 nM.
In turn, `COc1cc(Nc2nc3ccccc3nc2NS(=O)(=O)c2ccccc2)c(OCCCO)c(OC)c1` [Compound A30] came in with an IC50 of 1 to 100 nM.
Regarding `COc1cc(Nc2nc3ccccc3nc2NS(=O)(=O)c2cn(C)c(CN(C)C)n2)c(OCCC(C)O)c(OC)c1` (stereo not drawn) [Compound A28], the IC50 was in the range of 1 to 100 nM.
The same measure, in the same setting: the result for `COc1cc(Nc2nc3ccccc3nc2NS(=O)(=O)c2cn(C)cn2)c(CCCN2CCS(=O)(=O)CC2)c(OC)c1` [Compound A4] reads 100 to 10000 nM; that for `COc1cc(Nc2nc3ccccc3nc2NS(=O)(=O)c2cncs2)c(OCCC(C)O)c(OC)c1` (stereo not drawn) [Compound A101], 1 to 100 nM; that for `COc1cc(Nc2nc3ccccc3nc2NS(=O)(=O)c2cnn(C(F)F)c2)c(OCCC(C)O)c(OC)c1` (stereo not drawn) [Compound A103], 1 to 100 nM.
The same measure, in the same setting: the value for `COc1cc(Nc2nc3ccccc3nc2NS(=O)(=O)c2ccc(C#N)cc2)c(OCCN2CCOCC2)c(OC)c1` [Compound A70] was 1 to 100 nM.
On the same count and under the same terms, the result for `COc1cc(Nc2nc3ccccc3nc2NS(=O)(=O)c2ccc(CN3CCC3)cc2)c(OCCCO)c(OC)c1` [Compound A111, 4-Azetidin-1-ylmethyl-N-{3-[2-(3-hydroxypropoxy)-3,5-dimethoxyphenylamino]-quinoxalin-2-yl}-benzenesulfonamide] reads 100 to 10000 nM; that for `COc1cc(Nc2nc3ccccc3nc2NS(=O)(=O)c2ccc(C#N)cc2)c(OCCN(C)CCO)c(OC)c1` [Compound A78], 1 to 100 nM; that for `COc1cc(Nc2nc3ccccc3nc2NS(=O)(=O)c2ccn(CC(=O)N(C)C)n2)c(OCCCO)c(OC)c1` [Compound A122], 1 to 100 nM.

In the next assay the target is CK2 protein kinase (Homo sapiens, UniProt P68400).
Sequence of CK2 protein kinase (P68400 whole entry): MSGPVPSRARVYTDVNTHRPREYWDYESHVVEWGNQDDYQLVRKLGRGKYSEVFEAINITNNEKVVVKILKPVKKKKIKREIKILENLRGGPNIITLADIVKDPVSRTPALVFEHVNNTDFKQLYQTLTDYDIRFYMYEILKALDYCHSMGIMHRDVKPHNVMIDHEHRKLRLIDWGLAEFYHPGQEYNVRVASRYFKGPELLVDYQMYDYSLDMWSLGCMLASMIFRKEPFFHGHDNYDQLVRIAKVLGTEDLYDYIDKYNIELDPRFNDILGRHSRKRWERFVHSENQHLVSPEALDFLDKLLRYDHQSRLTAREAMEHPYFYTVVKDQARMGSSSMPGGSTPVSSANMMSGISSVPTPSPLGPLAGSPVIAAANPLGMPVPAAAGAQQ
Assay: not given
The conditions noted are these: cited from earlier work.
As to `O=c1cc(N2CCOCC2)oc2c(-c3ccccc3)cccc12` [LY294002], the IC50 is 5 to 10 µM.

Another assay has as its system phospholipases.
Assay: not given
Particulars: cited from earlier work.
For `O=c1cc(N2CCOCC2)oc2c(-c3ccccc3)cccc12` [LY294002], the “inhibitory activity on phospholipases” value is “slight inhibitory activity”.

For the next assay, the system named is neutrophils.
Assay: not given
The conditions noted are these: treatment of neutrophils; Thelen et al. 1994; cited from earlier work.
`COC[C@H]1OC(=O)c2coc3c2[C@@]1(C)C1=C(C3=O)[C@@H]2CCC(=O)[C@@]2(C)C[C@H]1OC(C)=O` [wortmannin]: the “fMLP-induced respiratory burst response” value is “prevents”.

In another assay the test system is neutrophils.
Assay: not given
Particulars: cited from earlier work.
As to `O=c1cc(N2CCOCC2)oc2c(-c3ccccc3)cccc12` [LY294002], the neutrophil migration result was “block” and the superoxide release result is “block”.
Consider `COC[C@H]1OC(=O)c2coc3c2[C@@]1(C)C1=C(C3=O)[C@@H]2CCC(=O)[C@@]2(C)C[C@H]1OC(C)=O` [wortmannin], for which the neutrophil migration result is listed as “block” and the superoxide release entry is listed as “block”.

A word on the IC50: it is the point on the concentration scale where inhibition reaches its midpoint.

Values taken from patent publication US8895559B2, “Quinoxalines derivatives and pharmaceutical compositions and kits” (Merck Patent GmbH, priority 2010, dated 2014).
